Earlier results, collected in US20100022444A1, “COMBINATION THERAPY FOR MODULATION OF ACTIVITY AND DEVELOPMENT OF CELLS AND TISSUES” (BodyBio, Inc., priority 2008, published 2010).

System: mouse model of Bulbar ALS
Settings: oral administration

## CCCC(=O)[O-].[Na+] [sodium butyrate]
  acetylation of nuclear histone in neural tissues: increased acetylation of nuclear histone in neural tissues
  neurological phenotypes: successfully ameliorated neurological phenotypes
